Experimental data from patent US20030114358A1, “Use of compatible solutes as inhibitors of the enzymatic decomposition of macromolecular biopolymers” (priority 2000, published 2003).

Assays:
Format in all cases: biochemical
[1] = system: human IgG; assay: ELISA residual signal after pepsin pretreatment of human IgG; conditions: for Residual signal in ELISA, pretreated antibody human IgG: two hours at 37° C.
Method: (§1) The inhibition by ectoine of the proteolysis of antibodies was additionally shown by enzyme-linked immunosorbent assay (ELISA). Thus, 96-well ELISA plates were coated over night with 0.5 μg of human IgG in 100 μl of 0.9% NaCl at 4° C. Subsequently, the plates were washed three times in 50 mM Tris, 0.8% NaCl, 0.020% KCl, pH 7.4, C(T-TBS), and blocked with 200 μl of 1% gelatin in TBS for 2 hours at 37° C. After three washes in T-TBS, an incubation was performed with monoclonal mouse anti-human IgG diluted 1:250 in TBS at 50 μl per well for one hour at 37° C. After four washes with T-TBS, incubation was performed with a peroxidase-conjugated rabbit anti-mouse antibody diluted 1:5000 in TBS at 100 μl per well for one hour at 37° C. After four additional washes, the enzyme reaction was performed by adding 100 μl of substrate per well. As the substrate was used 4.8 mg of phenylene diamine in 3 ml of 0.2 M Na2HPO4, 3 ml of 0.1 M citric acid, 6 ml of water, and 5 μl of H2O2. The reaction was stopped after about 10 minutes by acidification with 100 μl per well of 0.07 M sulfuric acid, and the plates were quantified in an ELISA autoreader. Prior to the experiment, all three protein components were proteolyzed by pepsin for two hours at 37° C. with or without the addition of 0.5 M ectoine. […] The antibody conjugate was not attacked by pepsin. The treatment was performed in an analogous manner with hydroxyectoine, proline and betaine.

[2] = system: peroxidase-conjugated rabbit anti-mouse antibody; assay: ELISA residual signal after pepsin pretreatment of peroxidase conjugate; conditions: two hours at 37° C.
Method: as §1, with “The treatment was performed in an analogous manner with hydroxyectoine, proline and betaine.” left out

[3] = system: heavy chains of a human antibody (IgG); assay: Limited proteolysis of human IgG by pepsin, quantified in 12% SDS gels; conditions: 0.5 M solute; 0.5 mg/ml antibody, 5 μg/ml pepsin, 37° C., 100 mM sodium acetate pH 3; FIG. 1
Method: Limited proteolyses of human IgG were performed at an antibody concentration of 0.5 mg/ml and a pepsin concentration of 5 μg/ml at 37° C. in 100 mM sodium acetate, pH 3. The incubations were performed without additions under 0.5 M ectoine, under 0.5 M hydroxyectoine, and under a mixture of 0.25 M ectoine and 0.25 M hydroxyectoine. The course of the limited proteolyses was quantified subsequent to the incubations in 12% SDS gels under reducing conditions.
Lanes 1, 5, 9: with water; lanes 2, 6, 10: with ectoine; lanes 3, 7, 11: with ectoine and hydroxyectoine; lanes 4, 8, 12; with hydroxyectoine; lanes 1, 2, 3, 4: without incubation; lanes 5, 6, 7, 8: after 15 min of incubation; lanes 9, 10, 11, 12: after 180 min of incubation.

[4] = system: monoclonal mouse anti-human IgG; assay: ELISA residual signal after pepsin pretreatment of monoclonal mouse antibody; conditions: for Residual signal in ELISA, pretreated antibody monoclonal mouse antibody: two hours at 37° C.
Method: as §1

[5] = biological target: pepsin (Homo sapiens, UniProt P0DJD8); assay: Pepsin activity by spectrophotometry on hydrolysis of a synthetic hexapeptide; conditions: substrate Leu-Ser-p-NitroPhe-Nle-Ala-Leu methyl ester; enzyme-kinetic measurements
Method: In principle, the experiments allow for two possible explanations. On the one hand, the compatible solutes could inhibit the protease. On the other hand, the solute could prevent the attack of the protease according to the invention for steric reasons through stabilization of the native, more compact conformation of the antibody molecule. Therefore, the effect of ectoine and hydroxyectoine on the activity of pepsin was determined by spectrophotometry on the hydrolysis of a synthetic low-molecular weight hexapeptide [E. Schinaith: Clin. Biochem. 22, 91-98 (1989)]. […] This is a clear indication of the fact that the inhibition of the antibody proteolyses is to be attributed to steric effects according to the invention.

[6] = with ectoine (0.5 M) and pepsin
[7] = with ectoine (0.5 M), without pepsin

Chain of pepsin (P0DJD8 63-388): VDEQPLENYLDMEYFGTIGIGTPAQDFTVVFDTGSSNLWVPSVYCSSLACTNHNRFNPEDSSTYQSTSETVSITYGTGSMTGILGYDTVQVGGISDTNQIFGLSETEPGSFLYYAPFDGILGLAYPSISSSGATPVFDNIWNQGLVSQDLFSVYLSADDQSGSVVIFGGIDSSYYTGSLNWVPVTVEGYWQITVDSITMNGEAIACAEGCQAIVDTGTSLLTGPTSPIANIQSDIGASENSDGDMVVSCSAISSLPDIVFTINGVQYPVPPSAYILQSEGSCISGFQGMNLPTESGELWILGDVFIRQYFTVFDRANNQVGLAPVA

Q: With `CC1=NCC[C@@H](C(=O)O)N1` [ectoine] as the compound, how does the “protection of human IgG against proteolytic digest by pepsin” value ([1]; 0.5 M ectoine, ELISA) read?
A: effectively protected

Q: And the “Residual signal in ELISA, pretreated antibody human IgG” value [1, 6]?
A: 91%

Q: What about the “Residual signal in ELISA, pretreated antibody human IgG” value [1, 7] of the same compound?
A: 85%

Q: What about the “Residual signal in ELISA, pretreated antibody peroxidase conjugate” value [2, 6] of the same compound?
A: 121%

Q: And the “Residual signal in ELISA, pretreated antibody peroxidase conjugate” value [2, 7]?
A: 98%

Q: And the “hydrolysis of the heavy chain of human IgG by pepsin” value [3]?
A: inhibited significantly

Q: And the “protection of monoclonal mouse antibody against proteolytic digest by pepsin” value ([4]; 0.5 M ectoine, ELISA)?
A: effectively protected

Q: What about the “Residual signal in ELISA, pretreated antibody monoclonal mouse antibody” value [4, 6] of the same compound?
A: 98%

Q: And the “Residual signal in ELISA, pretreated antibody monoclonal mouse antibody” value [4, 7]?
A: 97%

Q: What about the “inhibition of the protease pepsin” value [5] of the same compound?
A: neither ectoine nor hydroxyectoine inhibits the protease

Q: Which results are given for `CC1=NC[C@H](O)[C@@H](C(=O)O)N1` [hydroxyectoine]?
A: hydrolysis of the heavy chain of human IgG by pepsin [3]: inhibited significantly; inhibition of the protease pepsin [5]: neither ectoine nor hydroxyectoine inhibits the protease
